Measured values: patent US20260097106A1, “AVIRULENT LIVE BACTERIAL VACCINES CURED OF PLASMIDS CONTAINING ANTIMICROBIAL RESISTANCE GENES” (Drs. Koehnk & Feldman, LLP, priority 2022, published 2026)

Assays:
Assay type in all cases: cell-based, E. coli
[1] = test system: MS112101HM-competent (competent Edema Vac F18 cells); assay: AMR disc testing on Mueller Hinton agar plates; details: antibiotic disc
Description: (§1) AMR testing was performed comparing MS112101HM—SR, MS112101HM-AMR5, and MS112101HM-competent cells cultured on Mueller Hinton agar plates using Sulfatrim (SXT), Tetracycline (TE 30), Neomycin (NE 30), Sulfathiazine (ST 0.25), and Gentamicin (GM 10) discs.

[2] = test system: MS112101HM-SR (Edema Vac F18 cells cured of plasmids that contain AMR genes); assay: AMR disc testing on Mueller Hinton agar plates
Description: as §1

[3] = test system: MS112101HM-AMR5 (Edema Vac F18 transformed with AMR5 plasmid); assay: AMR disc testing on Mueller Hinton agar plates; details: antibiotic disc, Mueller Hinton plates
Description: as §1

[4] = test system: ECMS091703HM-SR (Entero Vac K88 cells cured of plasmids that contain AMR genes); assay: AMR disc testing on Mueller Hinton agar plates
Description: (§2) AMR testing was performed comparing ECMS091703HM-SR and ECMS091703HM-competent cells cultured on Mueller Hinton agar plates using Neomycin (NE 30) and Sulfathiazine (ST 0.25) discs. A master plate of ECMS091703HM-SR was produced as follows: subculturing a colony of ECMS091703HM-SR from LB agar containing 5% sucrose on new LB agar containing 5% sucrose, incubating overnight at 37° C., and storing sealed at 2-8° C.

[5] = test system: ECMS091703HM-competent (competent Entero Vac K88 cells); assay: AMR disc testing on Mueller Hinton agar plates; details: antibiotic disc
Description: as §2

[6] = test system: MS060520HM-PCISRAF18; assay: Growth on blood agar containing 16 μg/ml tetracycline HCl; details: 18 hours at 37° C.
Description: (§3) Comparison of tetracycline resistance between Edema Vac F18 cells cured of plasmids that contain AMR genes (MS060520HM-PCISRAF18) and Entero Vac K88 cells cured of plasmids that contain AMR genes (MS-K88-030321HM-PC2BSRAK88) was performed as follows: preparing subcultures of MS060520HM-PCISRAF18 and MS-K88-030321HM-PC2BSRAK88 on blood agar containing 16 μg/ml tetracycline HCl, incubating for 18 hours at 37° C., and observing haemolytic growth.

[7] = test system: MS-K88-030321HM-PC2BSRAK88; assay: as above; details: 18 hours at 37° C.
Description: as §3

[8] = test system: MS060520HM-PCISRAF18 cells; assay: Tetracycline HCl serial dilution in TSB media, turbidity
Description: Further evaluation of tetracycline sensitivity of cured MS060520HM-PCISRAF 18 cells was performed as follows: inoculating 10 ml of TSB media with MS060520HM-PCISRAF18 cells, incubating at 37° C. for 22 hours on orbital shaker at 150 rpm, preparing 1:1 serial dilutions of 5 ml tetracycline HCL in TSB media (from stock of 640 mg tetracycline HCl in 5 ml ultrapure water), inoculating the serial dilutions with 10 ul of the fermentate.

Compound: Sulfathiazine [ST 0.25]
- Ring measurement (radius, mm) [1]: 0 mm
- Ring measurement (radius, mm) ([2]; antibiotic disc, Mueller Hinton plates, MS112101HM-SR): 15 mm
- Resistance of the strain to the antibiotic (in words) ([2]; disc test, MS112101HM-SR compared with MS112101HM-competent): less resistance
- Ring measurement (radius, mm) [3]: 18 mm
- Ring measurement (radius, mm) ([4]; antibiotic disc, Mueller Hinton plates, ECMS091703HM-SR): 20 mm
- Resistance of the strain to the antibiotic (in words) ([4]; disc test, ECMS091703HM-SR compared with ECMS091703HM-competent): less resistance
- Ring measurement (radius, mm) [5]: 13 mm

Compound: CN(C)[C@@H]1C(O)=C(C(N)=O)C(=O)[C@@]2(O)C(O)=C3C(=O)c4c(O)cccc4[C@@](C)(O)[C@H]3C[C@@H]12.Cl [Tet HCl, Tetracycline HCL]
- Tetracycline resistance (haemolytic growth) [6]: confirmed tetracycline resistance
- Tetracycline resistance (haemolytic growth) [7]: did not display any tetracycline resistance
- Turbidity 8 hours post inoculation ([8]; Tet HCl 2 μg/ml in TSB media): Pos
- Turbidity 24 hours post inoculation ([8]; Tet HCl 2 μg/ml in TSB media): Pos
- Turbidity 8 hours post inoculation ([8]; Tet HCl 4 μg/ml in TSB media): Pos
- Turbidity 24 hours post inoculation ([8]; Tet HCl 4 μg/ml in TSB media): Pos
- Turbidity 8 hours post inoculation ([8]; Tet HCl 8 μg/ml in TSB media): Pos
- Turbidity 24 hours post inoculation ([8]; Tet HCl 8 μg/ml in TSB media): Pos
- Turbidity 8 hours post inoculation ([8]; Tet HCl 16 μg/ml in TSB media): Pos
- Turbidity 24 hours post inoculation ([8]; Tet HCl 16 μg/ml in TSB media): Pos
- Turbidity 8 hours post inoculation ([8]; Tet HCl 32 μg/ml in TSB media): Pos
- Turbidity 24 hours post inoculation ([8]; Tet HCl 32 μg/ml in TSB media): Pos
- Turbidity 8 hours post inoculation ([8]; Tet HCl 64 μg/ml in TSB media): Slight
- Turbidity 24 hours post inoculation ([8]; Tet HCl 64 μg/ml in TSB media): Pos
- Turbidity 8 hours post inoculation ([8]; Tet HCl 128 μg/ml in TSB media): Neg
- Turbidity 24 hours post inoculation ([8]; Tet HCl 128 μg/ml in TSB media): Pos
- Concentration with inhibited growth ([8]; tetracycline HCl in TSB media): 128 µg/mL
